Results reported in ChEMBL document CHEMBL1201862, “PubChem BioAssay data set” (2004).
Activity calls are given as the source filed them.

How the values were obtained:
[1] = biological target: Neurotensin receptor type 1 (Homo sapiens, UniProt P30989); type: functional;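 further: Image-based confirmatory dose-response assay measuring agonist activity at NTR1; NTR1-expressing U2OS osteosarcoma cells imaged for beta-arrestin GFP spot formation; agonist potency where compounds increase beta-arrestin recruitment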
Neurotensin receptor type 1, sequence (P30989 whole entry): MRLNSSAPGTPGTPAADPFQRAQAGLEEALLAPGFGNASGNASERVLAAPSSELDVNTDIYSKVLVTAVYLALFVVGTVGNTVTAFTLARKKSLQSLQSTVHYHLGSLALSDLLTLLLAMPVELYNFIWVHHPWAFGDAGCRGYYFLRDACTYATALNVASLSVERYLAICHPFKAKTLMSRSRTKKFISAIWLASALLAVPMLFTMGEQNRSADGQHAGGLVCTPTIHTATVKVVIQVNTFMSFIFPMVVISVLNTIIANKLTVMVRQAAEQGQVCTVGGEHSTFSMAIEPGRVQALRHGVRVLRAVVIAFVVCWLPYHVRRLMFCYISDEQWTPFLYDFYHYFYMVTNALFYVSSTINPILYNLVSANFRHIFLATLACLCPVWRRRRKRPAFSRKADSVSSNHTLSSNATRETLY

[2] = loss of viability in HepG2 cells – cell-based, CellTiter-Glo, cherry-picked, cytotoxicity control for Shn3 inhibitor project, dose response (AID 624134); type: functional
Beta-galactosidase = Beta-galactosidase (Escherichia coli, UniProt Q8VNN2); experiment: PubChem AID 485352; type: functional
Beta-galactosidase, sequence (Q8VNN2 whole entry): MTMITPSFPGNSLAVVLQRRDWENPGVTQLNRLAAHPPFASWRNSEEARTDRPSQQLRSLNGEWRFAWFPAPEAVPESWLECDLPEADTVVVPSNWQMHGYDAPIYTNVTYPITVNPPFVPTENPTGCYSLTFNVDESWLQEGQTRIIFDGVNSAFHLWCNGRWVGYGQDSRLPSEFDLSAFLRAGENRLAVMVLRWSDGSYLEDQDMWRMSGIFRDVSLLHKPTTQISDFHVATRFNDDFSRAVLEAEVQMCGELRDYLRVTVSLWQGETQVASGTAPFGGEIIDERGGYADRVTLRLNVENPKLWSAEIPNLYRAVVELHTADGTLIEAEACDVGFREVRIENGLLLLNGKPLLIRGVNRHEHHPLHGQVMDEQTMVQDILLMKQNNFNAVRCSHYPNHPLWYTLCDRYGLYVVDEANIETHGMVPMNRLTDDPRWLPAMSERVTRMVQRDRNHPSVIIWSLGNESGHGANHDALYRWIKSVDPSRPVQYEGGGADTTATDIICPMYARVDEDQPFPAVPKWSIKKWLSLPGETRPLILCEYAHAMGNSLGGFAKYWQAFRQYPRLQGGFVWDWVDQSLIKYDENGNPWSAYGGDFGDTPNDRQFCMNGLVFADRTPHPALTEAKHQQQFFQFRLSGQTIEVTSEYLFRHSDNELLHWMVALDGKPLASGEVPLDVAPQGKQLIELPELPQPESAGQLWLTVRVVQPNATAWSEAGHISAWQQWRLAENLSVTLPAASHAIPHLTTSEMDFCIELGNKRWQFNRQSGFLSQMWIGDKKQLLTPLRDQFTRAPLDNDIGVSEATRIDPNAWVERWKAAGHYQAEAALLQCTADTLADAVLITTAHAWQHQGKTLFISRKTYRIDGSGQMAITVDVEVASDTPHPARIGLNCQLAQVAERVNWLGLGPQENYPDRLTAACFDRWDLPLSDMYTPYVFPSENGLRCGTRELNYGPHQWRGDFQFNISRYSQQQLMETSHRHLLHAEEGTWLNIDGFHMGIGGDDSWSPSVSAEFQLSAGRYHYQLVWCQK

[3] = biological target: T1, Heat shock factor protein 1 (Mus musculus, UniProt P38532); experiment: decrease of HSF1-responsive luciferase luminescence – cell-based, NIH3T3, dose retest, confirmation (AID 2382); type: functional;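 further: NIH3T3 fibroblasts with HSF1-driven luciferase reporter stressed by proteasome inhibitor MG132; luminescence from HSF1-driven luciferase expression after 8 hours of MG132 stress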
T1 sequence (P38532 whole entry): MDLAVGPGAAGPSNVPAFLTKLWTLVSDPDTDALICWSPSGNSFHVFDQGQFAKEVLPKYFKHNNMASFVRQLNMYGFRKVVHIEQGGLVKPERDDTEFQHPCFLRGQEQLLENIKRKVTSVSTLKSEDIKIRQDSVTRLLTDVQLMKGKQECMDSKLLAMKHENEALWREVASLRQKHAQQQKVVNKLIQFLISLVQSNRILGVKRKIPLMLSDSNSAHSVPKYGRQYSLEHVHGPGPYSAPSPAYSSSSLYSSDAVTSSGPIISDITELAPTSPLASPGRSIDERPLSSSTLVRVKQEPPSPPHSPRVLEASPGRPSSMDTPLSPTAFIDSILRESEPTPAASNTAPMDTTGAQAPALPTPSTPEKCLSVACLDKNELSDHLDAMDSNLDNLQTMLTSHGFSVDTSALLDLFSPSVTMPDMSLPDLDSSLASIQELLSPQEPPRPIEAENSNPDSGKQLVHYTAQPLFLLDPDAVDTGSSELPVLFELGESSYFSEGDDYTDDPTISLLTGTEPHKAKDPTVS

cells [4] = type: functional, cell-based
[5] = reduction of Shn3 3'UTR-driven luciferase in osteoblasts – cell-based, Clone20 osteoblasts, firefly luciferase, cherry-picked, dose response (AID 624132); type: functional;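 further: firefly luciferase luminescence from reporter carrying the Shn3 3'UTR in osteoblasts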
cells [6] = type: functional, cell-based; remark: listed apart in the source
[7] = biological target: T2, Type-1 angiotensin II receptor (Homo sapiens, UniProt P30556); experiment: antagonism of angiotensin II type 1 receptor – cell-based, uHTS hits, selectivity assay for APJ receptor antagonist project, dose response (AID 463214); type: functional;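 further: antagonist potency against angiotensin II stimulated AT1 response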
T2 sequence (P30556 whole entry): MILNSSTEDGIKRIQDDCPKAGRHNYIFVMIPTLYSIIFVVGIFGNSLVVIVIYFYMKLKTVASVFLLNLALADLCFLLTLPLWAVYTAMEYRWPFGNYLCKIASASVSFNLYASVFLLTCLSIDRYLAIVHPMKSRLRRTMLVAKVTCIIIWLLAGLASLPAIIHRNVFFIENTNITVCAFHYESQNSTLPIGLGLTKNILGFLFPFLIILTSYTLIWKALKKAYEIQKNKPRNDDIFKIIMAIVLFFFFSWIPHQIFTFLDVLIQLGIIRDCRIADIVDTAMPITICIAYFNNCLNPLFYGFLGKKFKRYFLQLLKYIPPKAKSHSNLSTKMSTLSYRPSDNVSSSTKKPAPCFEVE

[8] = non-specific 3'UTR reporter inhibition in Clone20-Shn3RL – cell-based, Renilla luciferase, cherry-picked, counter-screen for Shn3 inhibitor project, dose response (AID 624133); type: functional
Protein skinhead-1 = biological target: T3, Protein skinhead-1 (Caenorhabditis elegans, UniProt P34707); type: functional
T3 sequence (P34707 whole entry): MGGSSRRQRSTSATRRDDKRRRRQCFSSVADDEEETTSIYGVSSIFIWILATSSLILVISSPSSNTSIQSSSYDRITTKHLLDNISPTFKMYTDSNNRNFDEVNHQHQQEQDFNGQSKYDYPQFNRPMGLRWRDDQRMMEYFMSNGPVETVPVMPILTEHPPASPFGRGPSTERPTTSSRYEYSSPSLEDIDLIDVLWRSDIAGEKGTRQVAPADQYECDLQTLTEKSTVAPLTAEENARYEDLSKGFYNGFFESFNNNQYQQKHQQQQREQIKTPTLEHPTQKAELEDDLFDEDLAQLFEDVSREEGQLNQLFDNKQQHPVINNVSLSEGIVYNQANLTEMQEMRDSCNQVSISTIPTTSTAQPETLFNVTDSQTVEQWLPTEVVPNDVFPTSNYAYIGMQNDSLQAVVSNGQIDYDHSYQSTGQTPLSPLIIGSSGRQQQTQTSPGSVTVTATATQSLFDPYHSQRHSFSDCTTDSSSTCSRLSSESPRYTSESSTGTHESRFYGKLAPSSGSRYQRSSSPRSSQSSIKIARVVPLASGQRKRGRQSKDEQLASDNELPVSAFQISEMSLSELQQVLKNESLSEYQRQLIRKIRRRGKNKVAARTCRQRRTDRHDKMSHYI

[9] = biological target: T4, Sentrin-specific protease 6 (Homo sapiens, UniProt Q9GZR1); type: functional;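 further: Luminescence-based dose-response confirmatory assay of SENP6 inhibition, following up an ultra-high-throughput screen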
T4 sequence (Q9GZR1 whole entry): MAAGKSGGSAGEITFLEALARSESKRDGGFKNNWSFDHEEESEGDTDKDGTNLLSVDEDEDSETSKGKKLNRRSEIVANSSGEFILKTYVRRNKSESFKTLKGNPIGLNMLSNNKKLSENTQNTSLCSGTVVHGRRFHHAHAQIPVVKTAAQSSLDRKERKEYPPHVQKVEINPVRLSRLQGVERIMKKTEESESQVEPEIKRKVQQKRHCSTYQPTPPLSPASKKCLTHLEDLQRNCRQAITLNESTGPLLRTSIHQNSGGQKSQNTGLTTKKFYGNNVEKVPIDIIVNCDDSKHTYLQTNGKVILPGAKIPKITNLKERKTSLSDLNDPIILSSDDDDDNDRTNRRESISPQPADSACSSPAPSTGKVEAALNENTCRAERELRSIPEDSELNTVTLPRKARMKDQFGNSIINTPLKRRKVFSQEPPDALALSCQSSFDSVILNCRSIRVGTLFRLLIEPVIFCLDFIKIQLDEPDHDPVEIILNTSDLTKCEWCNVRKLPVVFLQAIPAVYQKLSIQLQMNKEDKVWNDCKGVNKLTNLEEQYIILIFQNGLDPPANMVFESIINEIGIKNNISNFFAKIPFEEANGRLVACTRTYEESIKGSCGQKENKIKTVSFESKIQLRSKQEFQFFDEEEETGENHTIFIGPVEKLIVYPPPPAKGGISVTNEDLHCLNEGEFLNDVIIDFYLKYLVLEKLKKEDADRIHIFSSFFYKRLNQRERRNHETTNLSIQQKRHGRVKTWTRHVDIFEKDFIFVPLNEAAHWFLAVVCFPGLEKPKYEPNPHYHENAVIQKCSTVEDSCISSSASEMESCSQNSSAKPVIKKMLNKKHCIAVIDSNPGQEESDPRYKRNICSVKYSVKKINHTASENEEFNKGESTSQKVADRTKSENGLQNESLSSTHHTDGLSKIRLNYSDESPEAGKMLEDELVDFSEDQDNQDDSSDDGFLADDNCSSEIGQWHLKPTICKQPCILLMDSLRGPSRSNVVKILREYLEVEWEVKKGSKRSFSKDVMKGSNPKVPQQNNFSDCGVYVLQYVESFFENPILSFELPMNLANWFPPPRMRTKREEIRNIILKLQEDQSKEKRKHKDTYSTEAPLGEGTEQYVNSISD

[10] = biological target: T5, Sentrin-specific protease 8 (Homo sapiens, UniProt Q96LD8); type: functional;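 further: luminescence read-out of SENP8 inhibition, dose-response confirmation following an ultra-high-throughput screen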
T5 sequence (Q96LD8 whole entry): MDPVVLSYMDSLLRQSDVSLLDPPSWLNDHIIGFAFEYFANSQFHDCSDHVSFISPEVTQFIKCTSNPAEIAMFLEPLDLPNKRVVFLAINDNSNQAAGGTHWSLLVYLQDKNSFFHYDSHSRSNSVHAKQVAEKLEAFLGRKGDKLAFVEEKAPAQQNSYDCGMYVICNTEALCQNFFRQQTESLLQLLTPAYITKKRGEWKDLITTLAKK

[11] = biological target: Metabotropic glutamate receptor 4 (Rattus norvegicus, UniProt P31423); experiment: Modulation of the Metabotropic Glutamate Receptor mGluR4: Rat PAM Potency. [Related pubchem assays (depositor defined):AID2437, AID2807]; type: functional
Metabotropic glutamate receptor 4 (Rattus norvegicus, UniProt P31423), sequence (P31423 whole entry): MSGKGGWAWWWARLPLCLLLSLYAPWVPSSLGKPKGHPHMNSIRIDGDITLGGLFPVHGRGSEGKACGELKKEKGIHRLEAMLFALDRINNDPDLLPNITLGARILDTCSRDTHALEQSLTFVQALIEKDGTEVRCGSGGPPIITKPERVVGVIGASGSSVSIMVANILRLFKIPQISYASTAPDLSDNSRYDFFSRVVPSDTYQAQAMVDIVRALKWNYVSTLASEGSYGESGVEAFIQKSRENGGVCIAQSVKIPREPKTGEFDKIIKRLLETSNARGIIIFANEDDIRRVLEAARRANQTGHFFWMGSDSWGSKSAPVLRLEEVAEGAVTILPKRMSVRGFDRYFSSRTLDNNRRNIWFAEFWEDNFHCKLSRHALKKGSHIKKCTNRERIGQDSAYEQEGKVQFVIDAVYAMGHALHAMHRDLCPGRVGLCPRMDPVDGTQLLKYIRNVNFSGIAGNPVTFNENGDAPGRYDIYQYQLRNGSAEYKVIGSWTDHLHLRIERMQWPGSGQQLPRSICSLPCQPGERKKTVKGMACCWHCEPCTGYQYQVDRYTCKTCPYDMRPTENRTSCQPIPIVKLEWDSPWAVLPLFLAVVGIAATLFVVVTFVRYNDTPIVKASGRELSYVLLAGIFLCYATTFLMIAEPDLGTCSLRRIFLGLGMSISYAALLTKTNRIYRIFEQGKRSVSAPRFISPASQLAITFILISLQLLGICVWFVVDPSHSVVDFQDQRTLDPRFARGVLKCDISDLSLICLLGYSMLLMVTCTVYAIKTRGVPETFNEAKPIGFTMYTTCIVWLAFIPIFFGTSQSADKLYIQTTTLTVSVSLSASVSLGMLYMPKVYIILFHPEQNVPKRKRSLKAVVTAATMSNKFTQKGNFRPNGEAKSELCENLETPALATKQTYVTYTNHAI

[12] = biological target: T6, Sentrin-specific protease 7 (Homo sapiens, UniProt Q9BQF6); type: functional;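 further: Luminescence-based dose-response confirmation of ultra-high-throughput screening hits, measuring inhibition of SENP7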
T6 sequence (Q9BQF6 whole entry): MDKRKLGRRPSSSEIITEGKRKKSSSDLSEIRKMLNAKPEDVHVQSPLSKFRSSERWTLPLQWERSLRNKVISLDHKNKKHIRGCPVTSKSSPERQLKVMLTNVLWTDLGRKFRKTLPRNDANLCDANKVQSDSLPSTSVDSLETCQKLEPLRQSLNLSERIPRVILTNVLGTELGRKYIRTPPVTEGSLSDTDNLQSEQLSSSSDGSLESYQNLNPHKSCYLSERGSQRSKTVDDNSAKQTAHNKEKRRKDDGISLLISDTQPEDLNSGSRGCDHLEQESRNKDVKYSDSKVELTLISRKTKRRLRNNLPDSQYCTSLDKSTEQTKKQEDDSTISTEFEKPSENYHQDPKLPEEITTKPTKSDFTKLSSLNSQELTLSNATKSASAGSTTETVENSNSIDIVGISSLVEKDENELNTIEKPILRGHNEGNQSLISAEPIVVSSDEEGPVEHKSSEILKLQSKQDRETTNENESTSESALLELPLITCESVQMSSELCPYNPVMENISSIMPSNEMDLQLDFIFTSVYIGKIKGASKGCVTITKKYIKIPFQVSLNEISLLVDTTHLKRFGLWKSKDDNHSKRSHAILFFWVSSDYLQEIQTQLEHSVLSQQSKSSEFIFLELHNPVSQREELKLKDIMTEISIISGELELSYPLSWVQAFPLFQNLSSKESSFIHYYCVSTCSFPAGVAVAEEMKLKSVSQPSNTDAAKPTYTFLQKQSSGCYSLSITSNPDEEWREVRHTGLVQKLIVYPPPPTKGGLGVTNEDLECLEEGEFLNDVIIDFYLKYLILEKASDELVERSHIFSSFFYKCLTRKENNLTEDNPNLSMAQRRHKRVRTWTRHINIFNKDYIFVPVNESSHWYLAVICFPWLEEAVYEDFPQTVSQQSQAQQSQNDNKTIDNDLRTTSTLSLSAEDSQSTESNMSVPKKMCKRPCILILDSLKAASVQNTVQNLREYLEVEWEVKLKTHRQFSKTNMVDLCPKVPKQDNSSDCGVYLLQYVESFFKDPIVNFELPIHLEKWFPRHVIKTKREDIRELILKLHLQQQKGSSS

Caspase-3 = biological target: T7, Caspase-3 (Homo sapiens, UniProt P42574); type: functional;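 further: Dose-response selectivity test against caspase-3 for candidate inhibitors of sentrin-specific proteases (SENPs)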
T7 sequence (P42574 whole entry): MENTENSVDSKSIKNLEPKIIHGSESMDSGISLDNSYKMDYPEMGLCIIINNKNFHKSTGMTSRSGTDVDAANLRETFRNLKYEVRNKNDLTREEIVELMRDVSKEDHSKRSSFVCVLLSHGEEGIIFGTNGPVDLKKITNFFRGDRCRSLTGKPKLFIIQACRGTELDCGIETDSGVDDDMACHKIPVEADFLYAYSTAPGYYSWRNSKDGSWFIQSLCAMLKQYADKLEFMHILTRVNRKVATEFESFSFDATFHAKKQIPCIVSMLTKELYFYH

[13] = biological target: Metabotropic glutamate receptor 4 (Homo sapiens, UniProt Q14833); experiment: Modulation of the Metabotropic Glutamate Receptor mGluR4: Potency at human mGluR4. Modulation of intracellular Ca2+ using Fluo-4, AM, in CHO expressing recombinant receptor [Related pubchem assays (depositor defined):AID2437, AID2807]; type: functional, cell-based
Metabotropic glutamate receptor 4 (Homo sapiens, UniProt Q14833), sequence (Q14833 whole entry): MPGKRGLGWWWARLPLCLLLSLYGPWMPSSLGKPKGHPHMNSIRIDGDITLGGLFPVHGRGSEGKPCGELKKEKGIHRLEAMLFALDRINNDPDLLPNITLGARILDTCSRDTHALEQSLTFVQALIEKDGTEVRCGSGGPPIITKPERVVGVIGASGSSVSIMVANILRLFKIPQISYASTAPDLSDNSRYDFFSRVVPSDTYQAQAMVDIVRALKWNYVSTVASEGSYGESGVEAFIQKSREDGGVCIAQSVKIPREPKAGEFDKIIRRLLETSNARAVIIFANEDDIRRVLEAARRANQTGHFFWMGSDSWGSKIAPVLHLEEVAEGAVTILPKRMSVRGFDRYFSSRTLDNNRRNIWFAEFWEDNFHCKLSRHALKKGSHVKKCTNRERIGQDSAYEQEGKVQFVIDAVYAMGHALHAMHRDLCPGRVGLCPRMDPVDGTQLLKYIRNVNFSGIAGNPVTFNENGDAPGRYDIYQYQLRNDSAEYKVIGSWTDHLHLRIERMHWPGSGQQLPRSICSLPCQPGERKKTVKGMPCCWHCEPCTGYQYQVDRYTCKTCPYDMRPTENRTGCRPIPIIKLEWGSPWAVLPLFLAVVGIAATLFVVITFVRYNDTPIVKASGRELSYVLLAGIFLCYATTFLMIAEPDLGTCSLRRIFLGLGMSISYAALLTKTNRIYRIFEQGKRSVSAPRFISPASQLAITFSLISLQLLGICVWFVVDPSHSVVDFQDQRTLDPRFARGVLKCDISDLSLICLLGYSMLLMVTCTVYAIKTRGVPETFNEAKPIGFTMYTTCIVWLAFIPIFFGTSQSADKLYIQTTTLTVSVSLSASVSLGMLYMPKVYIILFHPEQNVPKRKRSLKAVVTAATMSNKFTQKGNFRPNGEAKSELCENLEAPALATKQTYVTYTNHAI

For `CC(=O)OCCCNc1cc(Sc2ccc(C)cc2)c2nonc2c1[N+](=O)[O-]`, the EC50 [1] was 5.83 µM (active), the AC50 [2] was > 70 µM (inactive) and the EC50 (Beta-galactosidase) was > 40 µM (inactive). The EC50 [3] was > 195 µM (not active), the EC50 (cells [4]) was > 350 µM (not active) and the AC50 [5] was 1.1 µM (active). The EC50 (cells [6]) was > 350 µM (not active), the IC50 [7] was 1.56 µM (active) and the AC50 [8] was 12.4 µM (active).

For `O=C(Nc1ccc(Cl)c(Cl)c1)c1ccco1`, the IC50 (Protein skinhead-1) was 24.4 µM (active), the IC50 [9] was 18.3 µM (active) and the IC50 [10] was 21.7 µM (active). The EC50 [11] was 3.58 µM (active), the IC50 [12] was 5.24 µM (active) and the IC50 (Caspase-3) was 17 µM (active). For the same molecule, the EC50 [13] was 4.54 µM (active).
